Data taken from US8865731B2, “Inhibitor of analgesic tolerance” (Kyowa Hakko Kirin Co., Ltd., priority 2008, dated 2014).

Tests used:
Male ddY mice [1] = assay: Suppressing activity on morphine analgesic tolerance (hot plate method, response latency); assay type: in vivo; conditions: for ΔChange (Latency at each time point − Pre value) 0.5 h: day 7, 0.5 h; for ΔChange (Latency at each time point − Pre value) 1 h: day 7, 1 h; for ΔChange (Latency at each time point − Pre value) 2 h: day 7, 2 h
Male ddY mice [2] = assay: Suppressing activity on oxycodone analgesic tolerance (hot plate method, response latency); conditions: for Latency (sec) Pre value (before drug administration on last day) / ΔChange (Latency at each time point − Pre value) 0.5 h / ΔChange (Latency at each time point − Pre value) 1 h / ΔChange (Latency at each time point − Pre value) 2 h: Table 6
[3] = Table 4, Compound (IIA) 100 mg/kg p.o. repeatedly administered alone
[4] = Table 4, repeated combination group: Compound (IIA) 100 mg/kg p.o. 30 min before each morphine 6 mg/kg s.c., 7 days
[5] = Table 1, Compound (IIIB) 3 mg/kg p.o. repeatedly administered alone
[6] = Table 1, repeated combination group: Compound (IIIB) 3 mg/kg p.o. 30 min before each morphine 6 mg/kg s.c., 7 days
[7] = Table 2, Compound (IIIC) 1 mg/kg p.o. repeatedly administered alone
[8] = Table 2, repeated combination group: Compound (IIIC) 1 mg/kg p.o. 30 min before each morphine 6 mg/kg s.c., 7 days
[9] = Table 5, compound 30 mg/kg p.o. repeatedly administered alone
[10] = Table 5, repeated combination group: compound 30 mg/kg p.o. 30 min before each morphine 6 mg/kg s.c., 7 days
[11] = Test Example 6, compound 30 mg/kg p.o. 30 min before each morphine 6 mg/kg s.c., 7 days
[12] = Test Example 6, compound 30 mg/kg p.o. repeatedly administered alone
[13] = Table 4, Compound (VIA) 30 mg/kg p.o. repeatedly administered alone
[14] = Table 4, repeated combination group: Compound (VIA) 30 mg/kg p.o. 30 min before each morphine 6 mg/kg s.c., 7 days
[15] = Table 4, Compound (VII) 60 mg/kg p.o. repeatedly administered alone
[16] = Table 4, repeated combination group: Compound (VII) 60 mg/kg p.o. 30 min before each morphine 6 mg/kg s.c., 7 days

CC(C)(O)CCN1CCN(c2cc3nc(-c4ccco4)nn3c(N)n2)CC1 [Compound (IIA)]
ΔChange (Latency at each time point − Pre value) 0.5 h (Male ddY mice [1]; [3]): 1.2 ± 1.5 s
ΔChange (Latency at each time point − Pre value) 1 h (Male ddY mice [1]; [3]): 1.7 ± 1.4 s
ΔChange (Latency at each time point − Pre value) 2 h (Male ddY mice [1]; [3]): 0.9 ± 1.1 s
ΔChange (Latency at each time point − Pre value) 0.5 h (Male ddY mice [1]; [4]): 12.8 ± 1.9 s
ΔChange (Latency at each time point − Pre value) 1 h (Male ddY mice [1]; [4]): 6.4 ± 1.7 s
ΔChange (Latency at each time point − Pre value) 2 h (Male ddY mice [1]; [4]): 2.4 ± 1.2 s
development of analgesic tolerance (response latency) (Male ddY mice [1]; Test Example 5, Compound (IIA) 100 mg/kg p.o. 30 min before each morphine 6 mg/kg s.c., 7 days): the development of analgesic tolerance was prevented
effect on the response latency (Male ddY mice [1]; Test Example 5, Compound (IIA) 100 mg/kg p.o. repeatedly administered alone): the effect on the response latency was not observed

Cc1ncc(C(=O)Nc2nc(-c3ccco3)c(C(=O)C3CCOCC3)s2)cn1 [Compound (IIIB)]
ΔChange (Latency at each time point − Pre value) 0.5 h (Male ddY mice [1]; [5]): 0.1 ± 0.5 s
ΔChange (Latency at each time point − Pre value) 1 h (Male ddY mice [1]; [5]): −0.1 ± 0.4 ^ sec
ΔChange (Latency at each time point − Pre value) 2 h (Male ddY mice [1]; [5]): 0.4 ± 1.2 s
ΔChange (Latency at each time point − Pre value) 0.5 h (Male ddY mice [1]; [6]): 18.2 ± 1.2 s
ΔChange (Latency at each time point − Pre value) 1 h (Male ddY mice [1]; [6]): 13.5 ± 0.8 s
ΔChange (Latency at each time point − Pre value) 2 h (Male ddY mice [1]; [6]): 4.8 ± 0.7 s
development of analgesic tolerance (response latency) (Male ddY mice [1]; Test Example 3, Compound (IIIB) 3 mg/kg p.o. 30 min before each morphine 6 mg/kg s.c., 7 days): the development of analgesic tolerance was prevented
effect on the response latency (Male ddY mice [1]; Test Example 3, Compound (IIIB) 3 mg/kg p.o. repeatedly administered alone): the effect on the response latency was not observed

Cc1ccc(C(=O)Nc2nc(-c3ccco3)c(C(=O)C3CCOCC3)s2)cn1 [Compound (IIIC)]
ΔChange (Latency at each time point − Pre value) 0.5 h (Male ddY mice [1]; [7]): −2.2 ± 1.3^ sec
ΔChange (Latency at each time point − Pre value) 1 h (Male ddY mice [1]; [7]): -1.0 ± 0.7 s
ΔChange (Latency at each time point − Pre value) 2 h (Male ddY mice [1]; [7]): -1.0 ± 0.9 s
ΔChange (Latency at each time point − Pre value) 0.5 h (Male ddY mice [1]; [8]): 16.1 ± 2.4 s
ΔChange (Latency at each time point − Pre value) 1 h (Male ddY mice [1]; [8]): 9.3 ± 1.6 s
ΔChange (Latency at each time point − Pre value) 2 h (Male ddY mice [1]; [8]): 1.9 ± 0.9 s
development of analgesic tolerance (response latency) (Male ddY mice [1]; Test Example 3, Compound (IIIC) 1 mg/kg p.o. 30 min before each morphine 6 mg/kg s.c., 7 days): the development of analgesic tolerance was prevented
effect on the response latency (Male ddY mice [1]; Test Example 3, Compound (IIIC) 1 mg/kg p.o. repeatedly administered alone): the effect on the response latency was not observed

COCCOc1ccc(N2CCN(CCn3ncc4c3nc(N)n3nc(-c5ccco5)nc43)CC2)cc1 [Compound (IVA)]
ΔChange (Latency at each time point − Pre value) 0.5 h (Male ddY mice [1]; [9]): 0.5 ± 0.6 s
ΔChange (Latency at each time point − Pre value) 1 h (Male ddY mice [1]; [9]): −0.4 ± 1.0 ^ sec
ΔChange (Latency at each time point − Pre value) 2 h (Male ddY mice [1]; [9]): -0.5 ± 1.4 s
ΔChange (Latency at each time point − Pre value) 0.5 h (Male ddY mice [1]; [10]): 14.9 ± 1.6 s
ΔChange (Latency at each time point − Pre value) 1 h (Male ddY mice [1]; [10]): 8.3 ± 0.4 s
ΔChange (Latency at each time point − Pre value) 2 h (Male ddY mice [1]; [10]): 0.7 ± 1.1 s
development of analgesic tolerance (response latency) (Male ddY mice [1]; [11]): the development of analgesic tolerance was prevented
effect on the response latency (Male ddY mice [1]; [12]): the effect on the response latency was not observed

CCCCc1nc(N)c2nc(-n3nccn3)n(C)c2n1 [Compound (VIA)]
ΔChange (Latency at each time point − Pre value) 0.5 h (Male ddY mice [1]; [13]): -0.8 ± 1.3 s
ΔChange (Latency at each time point − Pre value) 1 h (Male ddY mice [1]; [13]): 0.2 ± 2.1 s
ΔChange (Latency at each time point − Pre value) 2 h (Male ddY mice [1]; [13]): -0.2 ± 1.1 s
ΔChange (Latency at each time point − Pre value) 0.5 h (Male ddY mice [1]; [14]): 13.0 ± 2.4 s
ΔChange (Latency at each time point − Pre value) 1 h (Male ddY mice [1]; [14]): 7.6 ± 1.7 s
ΔChange (Latency at each time point − Pre value) 2 h (Male ddY mice [1]; [14]): 1.9 ± 1.3 s
development of analgesic tolerance (response latency) (Male ddY mice [1]; Test Example 5, Compound (VIA) 30 mg/kg p.o. 30 min before each morphine 6 mg/kg s.c., 7 days): the development of analgesic tolerance was prevented
effect on the response latency (Male ddY mice [1]; Test Example 5, Compound (VIA) 30 mg/kg p.o. repeatedly administered alone): the effect on the response latency was not observed

Cc1nc(-c2sc(NC(=O)C3CC3)nc2-c2ccccc2)no1 [Compound (VII)]
ΔChange (Latency at each time point − Pre value) 0.5 h (Male ddY mice [1]; [15]): -0.8 ± 1.0 s
ΔChange (Latency at each time point − Pre value) 1 h (Male ddY mice [1]; [15]): -0.7 ± 1.0 s
ΔChange (Latency at each time point − Pre value) 2 h (Male ddY mice [1]; [15]): 0.0 ± 0.6 s
ΔChange (Latency at each time point − Pre value) 0.5 h (Male ddY mice [1]; [16]): 12.8 ± 2.1 s
ΔChange (Latency at each time point − Pre value) 1 h (Male ddY mice [1]; [16]): 7.8 ± 1.3 s
ΔChange (Latency at each time point − Pre value) 2 h (Male ddY mice [1]; [16]): 1.8 ± 0.8 s
development of analgesic tolerance (response latency) (Male ddY mice [1]; Test Example 5, Compound (VII) 60 mg/kg p.o. 30 min before each morphine 6 mg/kg s.c., 7 days): the development of analgesic tolerance was prevented
effect on the response latency (Male ddY mice [1]; Test Example 5, Compound (VII) 60 mg/kg p.o. repeatedly administered alone): the effect on the response latency was not observed

Cc1cc(Cn2nnc3c(-c4ccco4)nc(N)nc32)ccc1N [Compound (VIII)]
ΔChange (Latency at each time point − Pre value) 0.5 h (Male ddY mice [1]; [9]): −0.5 ± 0.9 ^ sec
ΔChange (Latency at each time point − Pre value) 1 h (Male ddY mice [1]; [9]): 0.1 ± 0.9 s
ΔChange (Latency at each time point − Pre value) 2 h (Male ddY mice [1]; [9]): -1.1 ± 1.1 s
ΔChange (Latency at each time point − Pre value) 0.5 h (Male ddY mice [1]; [10]): 13.6 ± 1.6 s
ΔChange (Latency at each time point − Pre value) 1 h (Male ddY mice [1]; [10]): 7.8 ± 0.8 s
ΔChange (Latency at each time point − Pre value) 2 h (Male ddY mice [1]; [10]): 1.1 ± 0.8 s
development of analgesic tolerance (response latency) (Male ddY mice [1]; [11]): the development of analgesic tolerance was prevented
effect on the response latency (Male ddY mice [1]; [12]): the effect on the response latency was not observed

COc1ccc2c3c1O[C@H]1C(=O)CC[C@@]4(O)[C@@H](C2)N(C)CC[C@]314 [oxycodone, reference compound]
Latency (sec) Pre value (before drug administration on last day) (Male ddY mice [2]; repeated oxycodone administration group: oxycodone 20 mg/kg p.o. twice a day, 4 days, day 4): 12.4 ± 1.1 s
ΔChange (Latency at each time point − Pre value) 0.5 h (Male ddY mice [2]; repeated oxycodone administration group: oxycodone 20 mg/kg p.o. twice a day, 4 days, day 4, 0.5 h): 5.9 ± 3.4 s
ΔChange (Latency at each time point − Pre value) 1 h (Male ddY mice [2]; repeated oxycodone administration group: oxycodone 20 mg/kg p.o. twice a day, 4 days, day 4, 1 h): 2.7 ± 2.3 s
ΔChange (Latency at each time point − Pre value) 2 h (Male ddY mice [2]; repeated oxycodone administration group: oxycodone 20 mg/kg p.o. twice a day, 4 days, day 4, 2 h): 0.1 ± 1.3 s
Latency (sec) Pre value (before drug administration on last day) (Male ddY mice [2]; single oxycodone administration group: distilled water twice a day 3 days, oxycodone 20 mg/kg p.o. only on day 4): 11.7 ± 1.0 s
ΔChange (Latency at each time point − Pre value) 0.5 h (Male ddY mice [2]; single oxycodone administration group: oxycodone 20 mg/kg p.o. only on day 4, 0.5 h): 17.5 ± 4.2 s
ΔChange (Latency at each time point − Pre value) 1 h (Male ddY mice [2]; single oxycodone administration group: oxycodone 20 mg/kg p.o. only on day 4, 1 h): 11.8 ± 2.0 s
ΔChange (Latency at each time point − Pre value) 2 h (Male ddY mice [2]; single oxycodone administration group: oxycodone 20 mg/kg p.o. only on day 4, 2 h): 6.9 ± 2.4 s
development of analgesic tolerance (response latency) (Male ddY mice [2]; Test Example 7, oxycodone 20 mg/kg p.o. repeatedly for 4 days vs single oxycodone administration group): the development of analgesic tolerance was observed
